In PubChem BioAssay AID179 (DTP/NCI, 2004):
Active and inactive are the calls of the source.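 How the source made its calls: active means compounds giving half or more protection of infected cells from virus-caused growth loss, again on retest; inactive means the rest.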

System: CEM cells HIV-1 protection, formazan growth assay
Assay: NCI AIDS Antiviral Assay
Conditions: for IC50: measured here: growth of uninfected CEM cells
In short: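 Human CEM cells, uninfected and HIV-1-infected, received five drug concentrations, and growth was read by soluble formazan assay. Compounds giving at least 50% protection were retested; reproducible 100% protection defined confirmed active.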

Row | Structure (SMILES) | EC50 [µM] | IC50 [µM] | outcome
1 | Cn1cc(NC(=O)c2cc(N)nn2C)cc1C(=O)Nc1ccc2cc(S(=O)(=O)O)cc(S(=O)(=O)O)c2c1 | > 200 | > 200 | 
2 | CC(=O)Nc1cc(Nc2cc(=O)[nH]c(=O)[nH]2)ccc1C | > 200 | > 200 | 
3 | CCOC(=O)/C(C#N)=C/c1ccc(Br)cc1 | > 93.3 | > 93.3 | 
4 | O=C(Nc1cc2c(=O)[nH]c3ccccc3c2oc1=O)c1cnccn1 | > 100 | > 100 | 
5 | C[C@]12CC[C@H](O)CC1=CC[C@@H]1[C@@H]2CC[C@]2(C)/C(=N/OCCN3CCCC3)CC[C@@H]12 | > 200 | 9.33 | 
6 | CNC(=O)C(C(=O)NC)n1cnc(C(=O)OC)c1O | > 200 | > 200 | 
7 | COc1cc2oc(-c3ccccc3)cc(=O)c2c(O)c1C | > 33.1 | > 33.1 | 
8 | O=C1c2ccc([N+](=O)[O-])cc2C(=O)N1CC[P+](c1ccccc1)(c1ccccc1)c1ccccc1 | > 200 | > 200 | 
9 | CN(/N=C\c1ccc2ccccc2c1)C1=NCCCN1 | > 200 | 10 | 
10 | COCC12CN(C)C3C4C(OC)C1C3(C(OC)CC2O)C1CC2(O)C(OC)C(O)C4(OC(C)=O)C1C2OC(=O)c1ccccc1 (stereo not given) |  |  | inactive
11 | Cc1cccc(CP(Cc2cccc(C)c2)CC2(Cp3c4ccccc4c4ccccc43)COC2)c1 | > 2 | 0.257 | 
12 | C=CCOc1ccc(C2c3c([nH][nH]c3=O)CC(O)(OCC)C2C(=O)OCC)cc1OC (stereo not given) | > 200 | > 200 | 
13 | CN(C)CN1C(=O)S/C(=C2\C(=O)N(CN(C)C)c3ccccc32)C1=O | > 200 | 38 | 
14 | CCOC(=O)C1=C(SC)SC(C(=O)OCC)C2C=C(C)C=CN12 (stereo not given) | > 102 | 45.7 | 
15 | CC(=O)OCC(OC(C)=O)C(OC(C)=O)C(OC(C)=O)C(/C=N\Nc1nc2ccccc2c(=O)[nH]1)=N/Nc1nc2ccccc2c(=O)[nH]1 (stereo not given) | > 100 | > 100 | 
16 | O=C(CC(=O)Nc1ccccc1Cl)NNC(Sc1ccccc1)c1cc(N=Nc2ccc(Br)cc2)ccc1O (stereo not given) | > 100 | 1.91 | 
17 | CN(C)CCn1c(=O)nc2c3c(c([N+](=O)[O-])ccc31)Nc1ccc(O)cc1-2 | > 2 | 1.95 | 
18 | O=C1C2C3C=CC(C2C(=O)N1COP(=O)(O)O)C1C2C(=O)N(COP(=O)(O)O)C(=O)C2C31 (stereo not given) | > 100 | > 100 | 
19 | COc1ccc(-c2cc(-c3ccco3)c(C#N)c(=S)n2C2OC(CO)C(O)C(O)C2O)cc1 (stereo not given) | 37.2 | > 200 | 
20 | O=C(CCn1[nH]c(=O)c(Cl)c(Cl)c1=O)NO | > 933 | 832 | 
21 | NC1CC2C3CCC2C1C3=O (stereo not given) | > 200 | > 200 | 
22 | CCOC(=O)/N=N\C(=O)OCC | > 200 | > 200 | 
23 | O=[N+]([O-])c1c(F)c(F)c2c(c1F)N(CCCCCl)c1ccccc1S2 | > 200 | 7.94 | 
24 | Nc1c(SSc2ccc3ccccc3c2N)ccc2ccccc12 | > 50.1 | 14.8 | 
25 | COc1ccc2c(O)c(Oc3ccc(Cl)cc3)c(=O)oc2c1 |  |  | inactive
26 | NC(=O)CCC(NCc1c2ccccc2[n+]([O-])c2ccccc12)C(=O)O (stereo not given) |  |  | inactive
27 | CN(C)c1ccc(C2ON=C(c3ccccc3)N2C23CC4CC(CC(C4)C2)C3)cc1 (stereo not given) | > 200 | 24 | 

Row | Structure (SMILES) | EC50 [µM] | IC50 [µM] | outcome
28 | N#C/C(=C\c1cc(O)c(O)c(Br)c1)C(=O)NCCCNC(=O)/C(C#N)=C/c1cc(O)c(O)c(Br)c1 | > 200 | 112 | 
29 | N#CCc1ccccc1C(=O)O | > 1550 | 891 | 
30 | c1cc2c3c(c1)ncn3C[C@@H]1CCCN1C2 | > 295 | > 295 | 
31 | Cn1c(=O)c2c(nc3sc4ncccc4c(=O)n32)n(C)c1=O | > 151 | > 151 | 
32 | O=C(/C=C\c1ccc(Cl)c(Cl)c1)c1ccccc1 | > 200 | 10 | 
33 | CO/N=C(/C(=O)Nc1c[n+](CC(=O)[O-])cs1)c1csc(N)n1 | > 145 | > 145 | 
34 | CN(C(=O)C12C3C4C1(C(=O)O)C1C2C3(C(=O)O)C41C(=O)N(C)C(C)(C)C)C(C)(C)C (stereo not given) | > 17.4 | > 17.4 | 
35 | C#CCOCn1cnc2c(Cl)ncnc21 | > 1120 | 79.4 | 
36 | CCOC(O)(NC(=O)C(C(F)(F)F)C(F)(F)F)C(F)(F)F (stereo not given) | > 200 | > 200 | 
37 | O=C(NNC(=S)Nc1ccccc1)c1ccccc1Nc1ccccc1C(=O)NNC(=S)Nc1ccccc1 | > 30.9 | 30.2 | 
38 | Cc1cccc(/C=N/NC(=S)NCCc2ccccn2)n1 | > 200 | 20.4 | 
39 | CCOC(=O)C1=CNN=CC12C(=O)C(C(=O)OCC)CC2C(=O)OCC (stereo not given) | > 245 | > 245 | 
40 | O=C1c2ccccc2C(=O)N1CC(CN1C(=O)c2ccccc2C1=O)(C(=O)OCc1ccccc1)C(=O)OCc1ccccc1 | > 200 | > 200 | 
41 | O=[N+]([O-])c1cccc(C2SCc3nc4ccccc4n32)c1 (stereo not given) | > 60.3 | 37.2 | 
42 | O=C(OC1CCC(=C2SCCCS2)[C@H]1C1SCCCS1)c1ccccc1 (stereo not given in full) |  |  | inactive
43 | O=C(O)Cn1c[n+](NC(=O)Cc2ccccc2)cn1 | > 200 | > 200 | 
44 | O=[N+]([O-])C(=C(Nc1ccccc1)Nc1ccccc1)C(Cl)=C(Cl)Cl | > 200 | 17.4 | 
45 | N#Cc1c2nc3ccccc3nc2n2ccccc12 | > 40.7 | > 40.7 | 
46 | Nc1[nH]c(=O)[nH]c(=O)c1Cc1cccc(Cl)c1 | > 200 | 39.8 | 
47 | Cc1cc(O)c2c(c1)C(=O)C=CC2=O |  |  | inactive
48 | Cc1cccc(NC(=O)CSc2nnc(Cc3ccccc3)o2)c1 | > 537 | > 537 | 
49 | COC(=O)Cc1c(C2=Nc3ccccc3C2(O)CC(=O)OC)[nH]c2ccccc12 (stereo not given) | > 200 | 91.2 | 
50 | NNC1=Cn2c(nc3ccccc32)NN1 |  |  | inactive
51 | CC1(C)CSC(=S)N1 | > 200 | > 200 | 
52 | CC1C(=O)N2C(=O)C(C)C(C)C(=O)N2C(=O)C1C (stereo not given) | > 53.7 | > 53.7 | 
53 | Cc1ccsc1/C=N/Nc1cc(C)c2ccccc2n1 | > 200 | 5.37 | 
